From BindingDB's records for doi:10.1021/jm970059p (University of Illinois At Chicago, 1998)

Assay: Inhibition of [3H]-TCP binding to PCP receptor obtained from tissue homogenate preparation of fresh whole rat brain minus cerebellum

Question: With c1ccc2c(c1)C1CCCCC21N1CCCCC1 (stereo not drawn) [1-(1,3,4,8b-Tetrahydro-2H-biphenylen-4a-yl)-piperidine] as the molecule, how does the IC50 read?
Answer: 4.27 µM

Question: For c1ccc2c(c1)C1CCC2(N2CCCCC2)C1 (stereo not drawn) [1-(3,4-Dihydro-2H-1,4-methano-naphthalen-1-yl)-piperidine], which IC50 is on record?
Answer: 107 µM

Question: With c1ccc2c(c1)C1CCC2(N2CCCCC2)CC1 [1-Tricyclo[6.2.2.0*2,7*]dodeca-2(7),3,5-trien-1-yl-piperidine] as the molecule, how does the IC50 read?
Answer: 118 µM
